Experimental data from PMC4105567, “Aurora Kinases as Druggable Targets in Pediatric Leukemia: Heterogeneity in Target Modulation Activities and Cytotoxicity by Diverse Novel Therapeutic Agents” (PLoS ONE, 2014).
Where two headings read alike, the source gives them in different places.

Columns and labels:
[1] = tested on: C1 B-ALL cell line; experiment: Cytotoxicity assay, C1; assay type: cell-based, human; conditions: Homo sapiens, 96 h, four days in culture, Alamar blue assay or automated microscopy, ± SD, three experiments
Experimental: (§1) Cell lines were cultured in Opti-MEM medium (Gibco, Life Technologies Corporation, Burlington, Ontario) supplemented with 10% heat inactivated fetal bovine serum (FBS) (Gibco), 100 units/ml penicillin and 100 units/ml streptomycin (Gibco) and 0.05 mM 2-mercaptoethanol (Sigma-Aldrich, Oakville, Ontario) in T25 flasks (Nalge Nunc, Rochester, New York) or T75 flasks (Corning Incorporated, Corning, New York). All cell cultures were maintained at 37°C in a humidified incubator with 5% CO2.
(§2) For cytotoxicity profiling of Aurora kinase inhibitors against leukemia cell lines, inhibitors or vehicle control (DMSO, Sigma-Aldrich) were diluted in 100 µl of Opti-MEM per well in 96 well plates (Grenier Bio-One, Monroe, North Carolina) in triplicate at final concentrations ranging from 1×10^−6 to 10 µM. 1×10^4 cells per well were seeded and plates were incubated for 4 days. Following incubation for 4 days, cell survival was quantified by Alamar blue assay (Invitrogen) or automated inverted microscopy using the Celigo Cell Cytometer (Cyntellect, San Diego, California). […] During this period of incubation, the absorbance at 570–620 nm was measured (Opsys MR Plate Reader, Dynex Technologies, Chantilly, Virginia) at various time points, depending on the cell line or sample. Percent survival was calculated by comparing the absorbance ratio of the test well to the control well multiplied by 100%, as indicated in the following formula: […]
(§3) For automated inverted microscopy, the number of cells in each well was determined using the direct cell counting application as described previously. Briefly, following adjustment of image acquisition settings for bright-field imaging, the wells containing cells and appropriate dilutions of inhibitors were individually scanned. Based on these images, analysis parameters, including intensity threshold and cell diameter, were modified for optimal inclusion of viable cells in treated and control wells. These parameters were applied for subsequent replicates involving the same leukemia cell line or sample. The percent survival was then calculated as a ratio of the number of cells in treated wells to the number of cells in control wells multiplied by 100%. Given that Aurora kinase inhibitors interfere with cytokinesis, cells that are committed to death may still contain enlarging but intact cytoplasmic content before the eventual loss of cytoplasmic membrane integrity. The accuracy of Alamar blue assay may be, in theory, affected by the timing of these events.

[2] = tested on: SEM B-ALL cell line; experiment: Cytotoxicity assay, SEM; assay type: cell-based; conditions: Homo sapiens, 96 h, four days in culture, Alamar blue assay or automated microscopy, ± SD, three experiments
Experimental: as §1, §2, §3

[3] = tested on: B1 B-ALL cell line; experiment: Cytotoxicity assay, B1; assay type: cell-based, human; conditions: Homo sapiens, 96 h, four days in culture, Alamar blue assay or automated microscopy, ± SD, three experiments
Experimental: as §1, §2, §3

[4] = tested on: UOCB1 B-ALL cell line; experiment: Cytotoxicity assay, UOCB1; assay type: cell-based, human; conditions: Homo sapiens, UoC-B1, 96 h, four days in culture, Alamar blue assay or automated microscopy, ± SD, three experiments
Experimental: as §1, §2, §3

[5] = tested on: Nalm6 B-ALL cell line; experiment: Cytotoxicity assay, Nalm6; assay type: cell-based, human; conditions: Homo sapiens, NALM-6, 96 h, four days in culture, Alamar blue assay or automated microscopy, ± SD, three experiments
Experimental: as §1, §2, §3

[6] = tested on: KOPN8 B-ALL cell line; experiment: Cytotoxicity assay, KOPN8; assay type: cell-based, human; conditions: Homo sapiens, KOPN-8, 96 h, four days in culture, Alamar blue assay or automated microscopy, ± SD, three experiments
Experimental: as §1, §2, §3

[7] = tested on: CEM T-ALL cell line; experiment: Cytotoxicity assay, CEM; assay type: cell-based, human; conditions: Homo sapiens, 96 h, four days in culture, Alamar blue assay or automated microscopy, ± SD, three experiments
Experimental: as §1, §2, §3

[8] = tested on: Molt-3 T-ALL cell line; experiment: Cytotoxicity assay, Molt-3; assay type: cell-based, human; conditions: Homo sapiens, 96 h; T-ALL cell line Molt-3; four days in culture; Alamar blue assay or automated microscopy; ± SD, three experiments
Experimental: as §1, §2, §3

[9] = tested on: Molm13 AML cell line; experiment: Cytotoxicity assay, Molm13; assay type: cell-based, human; conditions: Homo sapiens, MOLM-13, 96 h, four days in culture, Alamar blue assay or automated microscopy, ± SD, three experiments
Experimental: as §1, §2, §3

[10] = tested on: MV4-11 AML cell line; experiment: Cytotoxicity assay, MV4-11; assay type: cell-based, human; conditions: Homo sapiens, 96 h; AML cell line MV4-11; four days in culture; Alamar blue assay or automated microscopy; ± SD, three experiments
Experimental: as §1, §2, §3

[11] = tested on: TIB-202 AML cell line; experiment: Cytotoxicity assay, TIB-202; assay type: cell-based, human; conditions: Homo sapiens, 96 h; AML cell line TIB-202; four days in culture; Alamar blue assay or automated microscopy; ± SD, three experiments
Experimental: as §1, §2, §3

[12] = tested on: NB4 APML cell line; experiment: Cytotoxicity assay, NB4; assay type: cell-based, human; conditions: Homo sapiens, 96 h, four days in culture, Alamar blue assay or automated microscopy, ± SD, three experiments
Experimental: as §1, §2, §3

[13] = tested on: HL-60 APML cell line; experiment: Cytotoxicity assay, HL-60; assay type: cell-based, human; conditions: Homo sapiens, 96 h; APML cell line HL-60; four days in culture; Alamar blue assay or automated microscopy; ± SD, three experiments
Experimental: as §1, §2, §3

[14] = tested on: HL-60 RA APML cell line; experiment: Cytotoxicity assay, HL-60 RA; assay type: cell-based, human; conditions: Homo sapiens, 96 h; APML cell line HL-60 RA; four days in culture; Alamar blue assay or automated microscopy; ± SD, three experiments
Experimental: as §1, §2, §3

[15] = tested on: Normal Lymphocytes; experiment: Cytotoxicity assay, normal lymphocytes; assay type: cell-based, human; conditions: Homo sapiens, Lymphocyte, 96 h; normal lymphocytes (control for non-leukemia cytotoxicity); four days in culture; ± SD, three experiments
Experimental: (§4) These include B-ALL (Patient #1), relapsed AML (Patient #2), AML/CML (Patient #3), infant ALL (Patient #4), and initial ALL presenting with secondary AML (Patient #5). […] The diluted sample was then layered on a Ficoll-Paque (GE Healthcare, Piscataway, New Jersey) gradient at a 1∶2 ratio of Ficoll to diluted sample. Samples were then centrifuged 1800 rpm for 20 minutes at room temperature. The buffy coat was removed with a pipette and transferred to a new centrifuge tube and diluted with PBS. After an additional centrifugation at 1200 rpm, the white blood cell pellet was washed with PBS and centrifuged one last time. Cells were re-suspended in Opti-MEM and viable cells were counted using trypan blue (Invitrogen, Life Technologies Corporation, Burlington, Ontario) exclusion on a haemocytometer. An identical protocol was followed for the isolation of white blood cells, referred to as “normal lymphocytes” in the following paragraphs, from healthy volunteers. Samples grown in culture for up to six months were cultured in Opti-MEM medium supplemented with 10% heat inactivated FBS, penicillin/streptomycin and 2-mercaptoethanol.
as §2, §3

[16] = tested on: Bone Marrow Stroma; experiment: Cytotoxicity assay, bone marrow stroma; assay type: cell-based, human; conditions: Homo sapiens, 96 h; bone marrow stroma (control for non-leukemia cytotoxicity); four days in culture; ± SD, three experiments
Experimental: as §2, §3

[17] = tested on: Patient #1 B-ALL primary leukemia cells; experiment: Cytotoxicity assay, primary sample Patient #1; assay type: cell-based, human; conditions: Homo sapiens, 96 h, four days in culture, Alamar blue assay or automated microscopy, one complete study
Experimental: as §4, §2, §3

[18] = tested on: Patient #2 relapsed AML primary leukemia cells; experiment: Cytotoxicity assay, primary sample Patient #2; assay type: cell-based, human; conditions: Homo sapiens, 96 h, four days in culture, Alamar blue assay or automated microscopy, one complete study
Experimental: as §4, §2, §3

[19] = tested on: Patient #3 AML/CML primary leukemia cells; experiment: Cytotoxicity assay, primary sample Patient #3; assay type: cell-based, human; conditions: Homo sapiens, 96 h, four days in culture, Alamar blue assay or automated microscopy, one complete study
Experimental: as §4, §2, §3

[20] = tested on: Patient #4 infant leukemia primary cells; experiment: Cytotoxicity assay, primary sample Patient #4; assay type: cell-based, human; conditions: Homo sapiens, 96 h, four days in culture, Alamar blue assay or automated microscopy, one complete study
Experimental: as §4, §2, §3

[21] = tested on: Patient #5 ALL/AML primary leukemia cells; experiment: Cytotoxicity assay, primary sample Patient #5; assay type: cell-based, human; conditions: Homo sapiens, 96 h, read-out: IC50, Patient #5 ALL/AML
Experimental: as §4, §2, §3

[22] = tested on: normal cells versus leukemia cell lines; experiment: Comparison of cytotoxicity IC50 values, normal cells versus leukemia cell lines; assay type: cell-based, human; conditions: normal lymphocytes and bone marrow stroma versus leukemia cell lines of Table 2
Experimental: as §2, §3

Compound	IC50 [1]	IC50 [2]	IC50 [3]	IC50 [4]	IC50 [5]	IC50 [6]	IC50 [7]	IC50 [8]	IC50 [9]	IC50 [10]	IC50 [11]	IC50 [12]	IC50 [13]	IC50 [14]	IC50 [15]	IC50 [16]	IC50 [17]	IC50 [18]	IC50 [19]	IC50 [20]	further results
Cc1cc(Nc2cc(N3CCN(C)CC3)nc(/C=C/c3ccccc3)n2)n[nH]1 [ENMD-2076]	0.7 ± 0.2 µM	0.5 ± 0.4 µM	1 ± 0.3 µM	1 ± 0.5 µM	0.2 ± 0.1 µM	0.6 ± 0.3 µM	0.6 ± 0.05 µM	0.8 ± 0.05 µM	0.04 ± 0.02 µM	0.001 ± 0.0001 µM	0.8 ± 0.2 µM	1 ± 0.6 µM	0.7 ± 0.09 µM	0.7 ± 0.2 µM	5 ± 3 µM	3 ± 1 µM	0.1 µM	0.008 µM	4 µM	10 µM	IC50 ([21]; primary sample, four days in culture, Alamar blue assay or automated microscopy, one complete study): 0.03 µM; IC50 values for the normal cells compared with IC50 values for the leukemia cell lines (potential therapeutic window) [22]: lower than the IC50 values for the normal cells, but not as pronounced
Nc1nc(Nc2ccc(S(N)(=O)=O)cc2)nn1C(=O)c1c(F)cccc1F [JNJ-7706621]	1 ± 0.5 µM	0.7 ± 0.3 µM	1 ± 0.1 µM	0.2 ± 0.09 µM	1 ± 0.1 µM	0.4 ± 0.08 µM	0.3 ± 0.2 µM	0.7 ± 0.1 µM	2 ± 0.6 µM	0.8 ± 0.09 µM	3 ± 1 µM	2 ± 0.9 µM	5 ± 2 µM	0.8 ± 0.1 µM	7 ± 0.5 µM	7 ± 0.8 µM	1 µM	0.7 µM	> 10 µM	8 µM	IC50 [21]: 0.0005 µM; IC50 values for the normal cells compared with IC50 values for the leukemia cell lines (potential therapeutic window) [22]: lower than the IC50 values for the normal cells, but not as pronounced
